Test results: patent US6207675A, “Pyrrole derivatives, their preparation and pharmaceutical compositions containing them” (Rhone-Poulenc Rorer S.A., priority 1996, dated 2001)
Converted amounts (≈) assume the structure as drawn.

Key:
[1] = tested on: human cytomegalovirus Davis strain; experiment: Antiviral activity on human cytomegalovirus, Davis strain (protection from virus-induced cytopathogenic effect); assay type: cell-based; conditions: for IC50 (concentration necessary to inhibit 50% of the cytopathogenic effect induced by the virus): Davis strain; for IC50: Human betaherpesvirus 5, Davis strain, read-out: IC50 (concentration necessary to inhibit 50% of the cytopathogenic effect induced by the virus)
Procedure: (§1) Infect. Dis., 10, 1026-1033 (1991); or in the technique described by Andrei et al., Eur. J. Clin. Microbiol. Infect. Dis., 11, 143-151 (1992), Reymen et al., Antiviral Res., 28, 343-357 (1995).
(§2) The technique used consists in the measurement of the cytopathogenic effect of the herpesvirus and of its protection by the use of products of general formula (I). The antiviral activity is assessed by measuring the IC50 (concentration necessary to inhibit 50% of the cytopathogenic effect induced by the virus).
(§3) The activity of the products according to the invention on the human cytomegalovirus has been studied on the Davis and AD-169 strains.

[2] = tested on: human cytomegalovirus AD-169 strain; experiment: Antiviral activity on human cytomegalovirus, AD-169 strain (protection from virus-induced cytopathogenic effect); assay type: cell-based
Procedure: as §1, §2, §3

Structure (SMILES)	IC50 (concentration necessary to inhibit 50% of the cytopathogenic effect induced by the virus) ([1]; listed as 7 [(R,S) form])	IC50 [1]	IC50 (concentration necessary to inhibit 50% of the cytopathogenic effect induced by the virus) ([2]; AD-169 strain)	IC50 ([2]; Human betaherpesvirus 5, AD169, AD-169 strain, read-out: IC50 (concentration necessary to inhibit 50% of the cytopathogenic effect induced by the virus))	IC50 (concentration necessary to inhibit 50% of the cytopathogenic effect induced by the virus) [1]
NC(=O)c1c(Cl)c(-c2cccnc2)n2c1C(O)CCC2 (racemic) [Example 7, (R,S)-2-chloro-8-hydroxy-3-pyridin-3-yl-5,6,7,8-tetrahydroindolizine-1-carboxamide]	0.015 µg/mL	0.027 µg/mL (≈ 0.0925 µM)	–	–	–
NC(=O)c1c(Cl)c(-c2cccnc2)n2c1C=C(Cl)CC2 [Example 1, 2,7-dichloro-3-pyridin-3-yl-5,6-dihydroindolizine-1-carboxamide]	–	0.5 µg/mL (≈ 1.62 µM)	–	–	–
COC1=Cc2c(C(N)=O)c(Cl)c(-c3cccnc3)n2CC1 [Example 2, 2-chloro-7-methoxy-3-pyridin-3-yl-5,6-dihydroindolizine-1-carboxamide]	–	0.43 µg/mL (≈ 1.42 µM)	0.86 µg/mL	0.5 µg/mL (≈ 1.65 µM)	0.72 µg/mL
